Positions count from the first letter of the chain named.
Key:
Assay in all cases: whole-cell patch clamp, HEK293T cells expressing mutant
Format in all cases: cell-based
Conditions in all cases: for relative responsiveness: 100 µM agonist 2 s, relative to ATP (100%)
[1] = molecular target: T1, rP2X4R T211A mutant (Rattus norvegicus, UniProt P51577, T211A)
T1 construct: expressed in transfected cells; host or cells: HEK293T
T1 sequence (P51577 1-388 T211A): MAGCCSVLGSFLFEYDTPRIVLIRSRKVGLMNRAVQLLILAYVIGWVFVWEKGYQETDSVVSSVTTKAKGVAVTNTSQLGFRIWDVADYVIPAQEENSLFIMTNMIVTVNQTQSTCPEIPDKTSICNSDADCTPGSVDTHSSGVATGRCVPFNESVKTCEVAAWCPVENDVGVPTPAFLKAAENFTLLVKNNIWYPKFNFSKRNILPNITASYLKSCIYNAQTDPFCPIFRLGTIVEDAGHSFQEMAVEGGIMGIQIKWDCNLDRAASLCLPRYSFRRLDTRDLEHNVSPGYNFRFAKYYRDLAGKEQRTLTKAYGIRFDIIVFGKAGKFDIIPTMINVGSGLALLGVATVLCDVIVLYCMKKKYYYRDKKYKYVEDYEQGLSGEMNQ

[2] = molecular target: T2, rP2X4R Y213A mutant (Rattus norvegicus, UniProt P51577, Y213A)
T2 construct: expressed in transfected cells; host or cells: HEK293T
T2 sequence (P51577 1-388 Y213A): T1 sequence (P51577 1-388 T211A) with A211T, Y213A

[3] = molecular target: T3, rP2X4R L206A mutant (Rattus norvegicus, UniProt P51577, L206A)
T3 construct: expressed in transfected cells; host or cells: HEK293T
T3 sequence (P51577 1-388 L206A): T1 sequence (P51577 1-388 T211A) with L206A, A211T

[4] = 3 µM IVM 4-6 min vs IVM-untreated
[5] = 100 µM ATP 60 s, biexponential fit
[6] = contribution of τdes2, 100 µM ATP 60 s
[7] = decay after removal of 1 or 3 µM ATP, 3 µM IVM
[8] = naïve receptors, 2–5 s application

**Q.** “2′(3′-O-(4-Benzoylbenzoyl)adenosine 5′-triphosphate [BzATP]” was tested. Which relative responsiveness [1] did it give?
**A.** 23.4±4.7 %

**Q.** What about the relative responsiveness [2] of the same compound?
**A.** 27.3±5.5%

**Q.** And the relative responsiveness [3]?
**A.** 33.7±8.0%

**Q.** Which “Fold incr. Imax” value [1, 4] does the source give for CC[C@H](C)[C@H]1O[C@]2(CC[C@@H]1C)C[C@@H]1C[C@@H](C/C=C(\C)[C@@H](O[C@H]3C[C@H](OC)[C@@H](O[C@H]4C[C@H](OC)[C@@H](O)[C@H](C)O4)[C@H](C)O3)[C@@H](C)/C=C/C=C3\CO[C@@H]4[C@H](O)C(C)=C[C@@H](C(=O)O1)[C@]34O)O2 [IVM, ivermectin] here?
**A.** 1.6 ± 0.3 fold

**Q.** What about the “Fold incr. Imax” value [2, 4] of the same compound?
**A.** 1.4 ± 0.1 fold

**Q.** What about the “Fold incr. Imax” value [3, 4] of the same compound?
**A.** 1.7 ± 0.2 fold

**Q.** CSc1nc(N)c2ncn([C@@H]3O[C@H](COP(=O)(O)OP(=O)(O)OP(=O)(O)O)[C@@H](O)[C@H]3O)c2n1 [2-MeS-ATP, 2-(Methylthio)adenosine 5′-triphosphate] was tested. Which relative responsiveness [1] did it give?
**A.** 79.3±6.7%

**Q.** And the relative responsiveness [2]?
**A.** 63.8±16.4%

**Q.** And the relative responsiveness [3]?
**A.** 68.3±6.5%

**Q.** Nc1ncnc2c1ncn2[C@@H]1O[C@H](CO[P@](=O)(O)O[P@](=O)(O)O[P@@](=O)(O)S)[C@@H](O)[C@H]1O [ATPγS, Adenosine 5′-(γ-thio)triphosphate] was tested. Which relative responsiveness [1] did it give?
**A.** 61.8±6.1%

**Q.** What about the relative responsiveness [2] of the same compound?
**A.** 37.1±5.5%

**Q.** What about the relative responsiveness [3] of the same compound?
**A.** 39.6±8.4%

**Q.** Which results are given for Nc1ncnc2c1ncn2[C@@H]1O[C@H](COP(=O)(O)OP(=O)(O)OP(=O)(O)O)[C@@H](O)[C@H]1O [ATP]?
**A.** τdes1 [1, 5]: 0.9 ± 0.4 s; τdes2 [1, 5]: 8.3 ± 2.4 s; Imax ([1]; 100–1000 µM ATP): 2.3 ± 0.3 nA; Imax+IVM ([1]; ATP after 3 µM IVM 4-6 min): 3.9 ± 0.7 nA; A2 /(A1+A2) [1, 6]: 60 ± 8%; τoff +IVM [1, 7]: 28 ± 2.5 s; EC50 [1, 8]: 2.6 ± 0.6 µM; τdes ([1]; weighted, 100 µM ATP 60 s): 5.0 ± 1.1 s; τdes1 [2, 5]: 3.0 ± 0.3 s; τdes2 [2, 5]: 12.4 ± 1.6 s; Imax ([2]; 100–1000 µM ATP): 2.2 ± 0.4 nA; Imax+IVM ([2]; ATP after 3 µM IVM 4-6 min): 3.1 ± 0.2 nA; A2 /(A1+A2) [2, 6]: 61 ± 6%; τoff +IVM [2, 7]: 18 ± 4.3 s; EC50 [2, 8]: 6 ± 0.9 µM; τdes ([2]; weighted, 100 µM ATP 60 s): 8.5 ± 0.8 s; τdes1 [3, 5]: 1.1 ± 0.2 s; τdes2 [3, 5]: 8.9 ± 2.2 s; Imax ([3]; 100–1000 µM ATP): 2.4 ± 0.3 nA; Imax+IVM ([3]; ATP after 3 µM IVM 4-6 min): 4.8 ± 0.8 nA; A2 /(A1+A2) [3, 6]: 70 ± 4%; τoff +IVM [3, 7]: 9.0 ± 1.4 s; EC50 [3, 8]: 10 ± 4.1 µM; τdes ([3]; weighted, 100 µM ATP 60 s): 6.3 ± 1.6 s

**Q.** How did the relative responsiveness [1] turn out when Nc1ncnc2c1ncn2C1OC(COP(=O)(O)CP(=O)(O)OP(=O)(O)O)C(O)C1O (stereo not drawn) [α,β-meATP, α,β-methyleneadenosine 5′-triphosphate] was run?
**A.** 39.1±7.2%

**Q.** And the relative responsiveness [2]?
**A.** 31.3±6.7%

**Q.** What about the relative responsiveness [3] of the same compound?
**A.** 27.5±2.5%

From article PMC4232510, “Identification of Functionally Important Residues of the Rat P2X4 Receptor by Alanine Scanning Mutagenesis of the Dorsal Fin and Left Flipper Domains” (PLoS ONE, 2014)
